The values below come from patent publication US20230093124A1, “Salts of Nintedanib and Crystalline Forms Thereof” (Apotex Inc., priority 2021, published 2023).

The nature of data set [1]: Form stability at high temperature and humidity (uncovered vial in stability chamber, then PXRD / 1H NMR analysis). Format: physicochemical. Also noted: key to Form stability result (PXRD): NC: no change in PXRD. The conditions noted are these: 40° C./75% RH. The procedure: PXRD diffractograms were recorded on a Bruker D8 Discover powder X-ray diffractometer (Bruker AXS LLC, Karlsruhe, Germany). The sample holder was oscillated along X and Y axes during the measurement. The generator was a Incoatec Microfocus Source (IμS) Cu tube (λ=1.54060 Å) with a voltage of 50 kV and current of 1.00 mA, using a divergence slit of 0.3 mm and collimator of 0.3 mm. For each sample, one frame was collected using a still scan with a PILATUS3 R 100K-A detector at the distance of 154.72 mm from the sample. Raw data were evaluated using the program DIFFRAC.EVA (Bruker AXS LLC, Karlsruhe, Germany).
Samples were kept in an uncovered vial in a stability chamber maintained at 40° C./75% relative humidity (RH) for the specified period prior to PXRD analysis to evaluate form stability.

For data set [2] the following is noted: cited from earlier work.
The conditions of data set [3]: cited from earlier work. This is another data set of the same source.
For data set [4] the following is noted: cited from earlier work. This is another data set of the same source.

In the case of `COC(=O)c1ccc2c(c1)NC(=O)C2=C(Nc1ccc(N(C)C(=O)CN2CCN(C)CC2)cc1)c1ccccc1.O=C1NS(=O)(=O)c2ccccc21` [Nintedanib saccharinate Form APO-I, nintedanib saccharinate], the “Form stability result (PXRD)” value in data set [1] (1 month) is given as “NC”.

In the case of `COC(=O)c1ccc2c(c1)NC(=O)C2=C(Nc1ccc(N(C)C(=O)CN2CCN(C)CC2)cc1)c1ccccc1.O=C(O)CNC(=O)c1ccccc1` [Nintedanib hippurate Form APO-I, nintedanib hippurate], in data set [1] (3 months), the “Form stability result (PXRD)” value is reported as “NC”. The “1H NMR spectroscopy following storage” value in data set [1] (after storage (3 months per Table 8)) is reported as “no change”.

In the case of `CC1=CC(=O)NS(=O)(=O)O1.CC1=CC(=O)NS(=O)(=O)O1.COC(=O)c1ccc2c(c1)NC(=O)C2=C(Nc1ccc(N(C)C(=O)CN2CCN(C)CC2)cc1)c1ccccc1` [Nintedanib diacesulfamate Form APO-I, nintedanib diacesulfamate], the “Form stability result (PXRD)” value in data set [1] (3 months) is given as “NC”.

Consider `COC(=O)c1ccc2c(c1)NC(=O)C2=C(Nc1ccc(N(C)C(=O)CN2CCN(C)CC2)cc1)c1ccccc1.O=C(O)CCCC(=O)O` [Nintedanib glutarate Form APO-I, nintedanib glutarate], for which the “Form stability result (PXRD)” value in data set [1] (1 month) is reported as “NC”.

Consider `COC(=O)c1ccc2c(c1)NC(=O)/C2=C(\Nc1ccc(N(C)C(=O)CN2CCN(C)CC2)cc1)c1ccccc1` [nintedanib esylate, (3Z)-2,3-dihydro-3-[[[4-[methyl[(4-methyl-1-piperazinyl)acetyl]amino]phenyl]amino]phenylmethylene]-2-oxo-1H-indole-6-carboxylic acid methyl ester], for which the “Chemical stability in the presence of water” value in data set [2] is given as “undergo hydrolysis”. Further, the “Solubility in neutral aqueous conditions” value in data set [3] is given as “poor”. For the same molecule, the Bioavailability in humans result in data set [4] is recorded as “low”.

For `CC1=CC(=O)NS(=O)(=O)O1.COC(=O)c1ccc2c(c1)NC(=O)C2=C(Nc1ccc(N(C)C(=O)CN2CCN(C)CC2)cc1)c1ccccc1` [Nintedanib acesulfamate Form APO-I, nintedanib acesulfamate], the “Form stability result (PXRD)” value in data set [1] (1 month) is “NC”.

`CC(=O)CCC(=O)O.COC(=O)c1ccc2c(c1)NC(=O)C2=C(Nc1ccc(N(C)C(=O)CN2CCN(C)CC2)cc1)c1ccccc1` [Nintedanib levulinate Form APO-I, nintedanib levulinate]: the “Form stability result (PXRD)” value in data set [1] (3 months) was “NC”.
